Key:
Test in all cases: relative viability (nuclei count vs DMSO), 5 days (fraction); higher = more cells survive
[1] = compound: CC1=NN=C(O1)C2=NN=C(C=C2)N3CCC(CC3)OC4=C(C=CC(=C4)F)Cl + Nc1ncn([C@H]2C[C@H](O)[C@@H](CO)O2)c(=O)n1 [Decitabine] (partner 2 µM)
Procedure, shortened: (§1)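 The day after seeding in 1536-well plates, lung cancer cell lines were treated by pin tool with a single drug, or with a fixed anchor-drug dose together with five library-drug doses (not always all listed) in √10 steps. After 5 days, a combined fix-and-stain solution (final 0.05% Triton X-100, 1% formaldehyde, 1 ug/ml Hoechst) was added. Nuclei counted on 4× images gave relative viability as treated counts over vehicle counts, reported as the median of duplicate plates.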

Tosedostat + Decitabine = compound: CC(C)C[C@@H](C(=O)N[C@H](C(=O)OC1CCCC1)c1ccccc1)[C@H](O)C(=O)NO [Tosedostat] + Nc1ncn([C@H]2C[C@H](O)[C@@H](CO)O2)c(=O)n1 [Decitabine] (partner 2 µM)
Procedure, shortened: as §1

Tosedostat + Foretinib = compound: CC(C)C[C@@H](C(=O)N[C@H](C(=O)OC1CCCC1)c1ccccc1)[C@H](O)C(=O)NO [Tosedostat] + COc1cc2c(Oc3ccc(NC(=O)C4(C(=O)Nc5ccc(F)cc5)CC4)cc3F)ccnc2cc1OCCCN1CCOCC1 [Foretinib] (partner 0.25 µM)
Procedure, shortened: as §1

[2] = compound: CC1=NN=C(O1)C2=NN=C(C=C2)N3CCC(CC3)OC4=C(C=CC(=C4)F)Cl + CC1(C)CCC(c2ccc(Cl)cc2)=C(CN2CCN(c3ccc(C(=O)NS(=O)(=O)c4ccc(N[C@H](CCN5CCOCC5)CSc5ccccc5)c(S(=O)(=O)C(F)(F)F)c4)cc3)CC2)C1 [Navitoclax] (partner 0.5 µM)
Procedure, shortened: as §1

Row | Cell Line | relative viability ([1]; first compound 0.253 µM) | relative viability ([1]; first compound 0.8 µM) | relative viability ([1]; first compound 2.53 µM) | relative viability ([1]; first compound 8 µM) | relative viability (Tosedostat + Decitabine; first compound 0.02 µM) | relative viability (Tosedostat + Decitabine; first compound 0.06325 µM) | relative viability (Tosedostat + Decitabine; first compound 0.2 µM) | relative viability (Tosedostat + Decitabine; first compound 0.6325 µM) | relative viability (Tosedostat + Decitabine; first compound 2 µM) | relative viability (Tosedostat + Foretinib; first compound 0.02 µM) | relative viability (Tosedostat + Foretinib; first compound 0.06325 µM) | relative viability (Tosedostat + Foretinib; first compound 0.2 µM) | relative viability (Tosedostat + Foretinib; first compound 0.6325 µM) | relative viability (Tosedostat + Foretinib; first compound 2 µM) | relative viability ([2]; first compound 0.253 µM) | relative viability ([2]; first compound 0.8 µM) | relative viability ([2]; first compound 2.53 µM) | relative viability ([2]; first compound 8 µM)
1 | NCI-H322M | 0.812 | 0.709 | 0.682 | 0.643 | 0.69 | 0.652 | 0.587 | 0.636 | 0.621 | 0.995 | 0.899 | 0.93 | 0.904 | 0.857 | 1.17 | 1.11 | 1.11 | 1
2 | NCI-H441 | 0.221 | 0.227 | 0.259 | 0.254 | 0.226 | 0.253 | 0.239 | 0.198 | 0.244 | 0.906 | 1.1 | 0.992 | 0.63 | 0.604 | 0.536 | 0.654 | 0.544 | 0.472
3 | NCI-H460 | 0.164 | 0.167 | 0.201 | 0.166 | 0.514 | 0.466 | 0.457 | 0.468 | 0.528 | 1.05 | 1 | 0.968 | 0.977 | 1 | 0.429 | 0.42 | 0.45 | 0.392
4 | NCI-H520 | 0.603 | 0.495 | 0.478 | 0.362 | 0.524 | 0.439 | 0.414 | 0.459 | 0.495 | 0.807 | 0.776 |  | 0.834 | 0.819 | 0.926 | 0.566 | 1.05 | 1.09
5 | NCI-H596 | 1.01 | 0.977 | 1.08 | 0.762 | 1.3 | 1.13 | 1.03 | 0.879 | 0.838 | 0.905 | 0.872 | 0.938 | 0.764 | 0.839 |  | 0.756 | 0.894 | 0.723
6 | NCI-H647 | 0.32 | 0.289 | 0.275 | 0.223 | 0.332 | 0.367 | 0.286 | 0.404 | 0.313 | 1.36 | 1.14 | 1.18 | 1.04 | 1.17 | 0.744 | 0.704 | 0.821 | 0.679
7 | NCI-H727 | 0.916 | 0.873 | 0.905 | 0.862 | 0.88 | 0.9 | 0.868 | 0.794 | 0.754 | 0.908 | 0.622 |  | 0.602 | 0.487 | 0.479 | 0.36 | 0.368 | 0.262
8 | NCI-H838 | 0.467 | 0.463 | 0.442 | 0.451 | 0.483 | 0.449 | 0.431 | 0.421 | 0.392 | 1.1 | 1.02 | 1.04 | 1.08 | 1.13 | 0.959 | 0.954 | 1.05 | 0.979
9 | NCI-H1355 | 0.311 | 0.333 | 0.334 | 0.339 | 0.347 | 0.357 | 0.315 | 0.332 | 0.305 | 0.93 | 0.991 | 0.99 | 0.92 | 0.883 |  |  | 0.947 | 0.763
10 | NCI-H1395 | 0.689 | 0.762 | 0.757 | 0.714 | 0.888 | 0.689 | 0.715 | 0.624 | 0.622 | 0.917 | 1.05 | 0.952 | 0.918 | 0.871 | 1.17 | 0.859 | 1 | 1.13
11 | NCI-H1437 | 0.376 | 0.383 | 0.399 | 0.368 | 0.537 | 0.569 | 0.58 | 0.566 | 0.564 | 1.3 | 1.32 | 1.34 | 1.25 | 1.25 | 0.571 | 0.66 | 0.564 | 0.46
12 | NCI-H1650 | 0.338 | 0.402 | 0.387 | 0.392 | 0.43 | 0.413 | 0.433 | 0.318 | 0.237 | 1.05 | 0.955 | 1.03 | 0.985 | 0.967 |  | 0.895 | 0.816 | 0.868
13 | NCI-H1651 | 0.486 | 0.46 | 0.451 | 0.391 | 0.683 | 0.63 | 0.501 | 0.523 | 0.503 | 0.864 | 0.736 | 0.764 | 0.906 | 0.688 | 0.809 | 0.783 | 0.782 | 0.717
14 | NCI-H1666 | 0.561 | 0.674 | 0.69 | 0.534 | 0.776 | 0.744 | 0.696 | 0.727 | 0.658 | 1.08 | 1.01 | 0.945 | 0.899 | 1.05 | 0.706 | 0.667 | 0.723 | 0.698
15 | NCI-H1734 | 0.519 | 0.482 | 0.463 | 0.503 | 0.487 | 0.509 | 0.461 | 0.418 | 0.446 | 0.93 | 0.859 | 0.826 | 0.818 | 0.652 | 0.826 | 0.682 | 0.843 | 0.754
16 | NCI-H1755 | 0.524 | 0.54 | 0.605 | 0.503 | 0.861 | 0.699 | 0.712 | 0.716 | 0.674 | 1.01 | 0.944 | 1 | 0.992 | 0.931 | 0.615 | 0.682 | 0.676 | 0.655

From the supplement of paper PMC10307832
